Ends that are not written are not given here.
Tests used:
[1] = system: rough mutant E. coli J5 bacteria; experiment: Radial diffusion bactericidal assay, E. coli J5; type: cell-based; conditions: for pmol added to well to achieve a 30 mm^2 bactericidal zone, E. coli J5: radial diffusion, PROBIT analysis, E. coli J5 (rough)
In short: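 Wells received 5 or 10 μL of BPI fragment, pre-incubated 3 h at 37 °C. The underlayer agarose carried washed log-phase organisms at 4×10^6 CFU/mL.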

E. coli 0113 LPS = experiment: Limulus Amoebocyte Lysate (LAL) inhibition assay; type: biochemical
Experimental: BPI proteolytic fragments produced according to Example 1 were subjected to a Limulus Amoebocyte Lysate (LAL) inhibition assay to determine LPS binding properties of these fragments. Specifically, each of the fragments were mixed in Eppendorf tubes with a fixed concentration of E. coli 0113 LPS (4 ng/mL final concentration) and incubated at 37° C. for 3 hours with occasional shaking. Addition controls comprising rBPI23 at 0.05 μg/mL were also tested. Following incubation, 360 μL of Dulbecco's phosphate buffered saline (D-PBS; Grand Island Biological Co. (GIBCO), Long Island, N.Y.) were added per tube to obtain an LPS concentration of 200 pg/mL for the LAL assay. Each sample was then transferred into Immulon II strips (Dynatech, Chantilly, Va.) in volumes of 50 μl per well.
Limulus amoebocyte Lysate (Quantitative Chromogenic LAL kit, Whitaker Bioproducts, Inc., Walkersville, Md.) was added at 50 μL per well and the wells were incubated at room temperature for 25 minutes. Chromogenic substrate was then added at a volume of 100 μL per well and was well mixed. After incubation for 20 to 30 minutes at room temperature, the reaction was stopped with addition of 100 μL of 25% (v/v) acetic acid. Optical density at 405 nm was then measured in a multiplate reader (Model Vmax, […], Menlo Park, Calif.) with the results shown in FIG. 2 in terms of percent inhibition of LPS. In this Figure, the filled circle represents rBPI23; the open circle represents Asp-N fragment A3; the x represents Asp-N fragment A2, the filled square represents Asp-N fragment A4; the filled triangle represents Asp-N fragment A1A2; the open square represents Asp-N fragment A6a; the small open triangle represents CNBr fragment C3; and the small filled square represents CNBr fragment C1/C5.

[2] = 3H-heparin binding assay (affinity and capacity); conditions: for HEPCAP (x Fold change in activity): heparin binding capacity; for Heparin Capacity: heparin bound at saturation; for Kd: read-out: Heparin Affinity; for cpm ^3H-Heparin bound: 100 picomoles of each fragment per well, saturating 3H-heparin 20 μg/mL, mean of duplicate wells ± range
In short: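 Peptide fragments were bound to PVDF-membrane wells and incubated with 3H-heparin in blocking buffer for 1 h at 4 °C. After washing, bound radioactivity was quantified by liquid scintillation counting, with BSA background subtracted; rBPI23 served as positive control.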

[3] = system: E. coli 0111:B4 (smooth) bacteria; experiment: Radial diffusion bactericidal assay, E. coli 0111:B4; type: cell-based; conditions: radial diffusion; PROBIT analysis; E. coli O111:B4 (smooth)
C. albicans = experiment: Radial diffusion fungicidal assay, Candida albicans; type: cell-based; conditions: radial diffusion
Candida albicans = type: cell-based; conditions: for MIC (x Fold change in fungicidal activity): alanine variant relative to BPI.13
[4] = alanine variant relative to BPI.2
[5] = alanine variant relative to BPI.13

| Molecule | pmol added to well to achieve a 30 mm^2 bactericidal zone, E. coli J5 [1] | LAL (relative difference) (E. coli 0113 LPS; [4]) | Heparin Capacity [2] | Kd [2] | pmol added to well to achieve a 30 mm^2 bactericidal zone, E. coli O111:B4 [3] | also measured |
| --- | --- | --- | --- | --- | --- | --- |
| IKISAKWKAQKRFLK [BPI.19] | 2,187.80 pmol | = (no difference in the LAL assay) | 203.6 ng | 266 nM | b (no detectable activity up to 5 μg/well) | HEPCAP (x Fold change in activity) ([2]; relative to BPI.2): =1.0 x Fold |
| IAISGKWKAQKRFLK [BPI.16] | 7,550.90 pmol | = (no difference in the LAL assay) | 127.25 ng | 231 nM | b (no detectable activity up to 5 μg/well) |  |
| KSKVAWLIQLFHKK [BPI.35] | 263.00 pmol |  | 406.0 ng | 1080 nM | b (no detectable activity up to 5 μg/well) | LAL (relative difference) (E. coli 0113 LPS; [5]): = (no difference in the LAL assay); increase of Kd of heparin binding and heparin capacity ([2]; vs unsubstituted peptide): 10%; C. albicans: pmol required for 30 mm^2 zone (C. albicans): 441.79 pmol; MIC C. alb (Candida albicans): 3.13 µg/mL |
| KSKVGWAIQLFHKK [BPI.37] | 1,284.00 pmol |  | 136.7 ng | 189 nM | b (no detectable activity up to 5 μg/well) | LAL (relative difference) (E. coli 0113 LPS; [5]): = (no difference in the LAL assay); C. albicans: pmol required for 30 mm^2 zone (C. albicans): 252.71 pmol; MIC C. alb (Candida albicans): 6.25 µg/mL; MIC (x Fold change in fungicidal activity) (Candida albicans): = |
| IKISGKWAAQKRFLK [BPI.22] | 2,546.80 pmol | = (no difference in the LAL assay) | 135.7 ng | 315 nM | b (no detectable activity up to 5 μg/well) | RDA (x Fold change in activity) [1, 4]: =1.0 x Fold |
| IKASGKWKAQKRFLK [BPI.17] | 15,836.70 pmol | ↓ (moderate) | 113.1 ng | 266 nM | b (no detectable activity up to 5 μg/well) | LAL / LPS inhibition activity (in words) (E. coli 0113 LPS): moderate |
| IKISGKWKAQARFLK [BPI.24] | 654.60 pmol | = (no difference in the LAL assay) | 427.6 ng | 165 nM | 27,330.00 pmol | activity of position 95 substitution variants (in words) ([1]; activity not further specified): unexpected increase |
| IKISGAWKAQKRFLK [BPI.20] | 3,451.40 pmol | = (no difference in the LAL assay) | 203.6 ng | 485 nM | b (no detectable activity up to 5 μg/well) | HEPCAP (x Fold change in activity) ([2]; relative to BPI.2): =1.0 x Fold |
| IKISGKWKAQKRFLA [BPI.28] | 6,194.40 pmol | = (no difference in the LAL assay) | 156.6 ng | 266 nM | b (no detectable activity up to 5 μg/well) |  |
| IKISGKAKAQKRFLK [BPI.21] | 27,647.60 pmol |  | 50.9 ng | 231 nM | b (no detectable activity up to 5 μg/well) | fold reduction in bactericidal activity in the radial diffusion assay ([1]; alanine variant vs unsubstituted peptide): more than 10 fold; LAL / LPS inhibition activity (in words) (E. coli 0113 LPS): large decrease in activity; heparin binding capacity, fold lower than the unsubstituted peptide [2]: 4 fold |
| A1: Asp-N fragment of rBPI23, region 1-38 as printed in Table II (A1 A2 in Table I) (VNPGVVVRISQKGLDYASQQGTAALQKELKRIKIPDYS; Asp-N fragment; UniProt P17213 32-69, looked up, fragment) |  |  |  |  |  | amount required to inhibit the LAL assay, fold higher than 116-193 fragment / rBPI23 (E. coli 0113 LPS): 10 fold; cpm ^3H-Heparin bound [2]: 17,002 ± 479 cpm |
| A4: Asp-N fragment of rBPI23, residues 57-104 (DIREFQLPSSQISMVPNVGLKFSISNANIKISGKWKAQKRFLKMSGNF; UniProt P17213 88-135, looked up, fragment) |  |  |  |  |  | amount required to inhibit the LAL assay, fold higher than 116-193 fragment / rBPI23 (E. coli 0113 LPS): 10 fold; cpm ^3H-Heparin bound [2]: 33,159 ± 1.095 cpm |
| AKISGKWKAQKRFLK [BPI.15] | 9,705.10 pmol | = (no difference in the LAL assay) | 145.4 ng | 315 nM | b (no detectable activity up to 5 μg/well) |  |
| KSKVGWLIQLFHKA [BPI.44] | 480.80 pmol |  | 335.6 ng | 579 nM |  | LAL (relative difference) (E. coli 0113 LPS; [5]): = (no difference in the LAL assay); C. albicans: pmol required for 30 mm^2 zone (C. albicans): 577.65 pmol; MIC C. alb (Candida albicans): 6.25 µg/mL; MIC (x Fold change in fungicidal activity) (Candida albicans): = |
| IKISGKWKAQKRALK [BPI.26] | 8,709.60 pmol | = (no difference in the LAL assay) | 113.1 ng | 231 nM | b (no detectable activity up to 5 μg/well) |  |
| IKISGKWKAQKRFAK [BPI.27] | 5,754.40 pmol | = (no difference in the LAL assay) | 119.8 ng | 204 nM | b (no detectable activity up to 5 μg/well) |  |
| IKISGKWKAQKAFLK [BPI.25] | 8,203.50 pmol | = (no difference in the LAL assay) | 107.2 ng | 346 nM | b (no detectable activity up to 5 μg/well) | heparin binding capacity, fold lower than the unsubstituted peptide [2]: ~2 fold; HEPKd (x Fold change in activity) ([2]; heparin binding affinity, relative to BPI.2): =1.0 x Fold |
| IKIAGKWKAQKRFLK [BPI.18] | 7,128.50 pmol | = (no difference in the LAL assay) | 156.6 ng | 381 nM | b (no detectable activity up to 5 μg/well) |  |
| C1,C5: unresolved mixture of CNBr fragments of rBPI23, residues 1-56 and 112-170 (protein, non-natural residues) chain 1: MRENMARGPCNAPRWVSLMVLVAIGTAVTAAVNPGVVVRISQKGLDYASQQGTAAL chain 2: SNANIKISGKWKAQKRFLKMSGNFDLSIEGMSISADLKLGSNPTSGKPTITCSSCSSHI |  |  |  |  |  | IC50 relative to intact rBPI23 (fold higher) (E. coli 0113 LPS): approximately 10 fold; IC50 (E. coli 0113 LPS; read-out: IC50 of inhibition of the LPS-induced LAL reaction): ~100 nM; cpm ^3H-Heparin bound [2]: 82,918 ± 4,462 cpm |
| A6a: Asp-N fragment of rBPI23, residues 116-193 (protein) IKISGKWKAQKRFLKMSGNFDLSIEGMSISADLKLGSNPTSGKPTITCSSCSSHINSVHVHISKSKVGWLIQLFHKKI |  |  |  |  |  | LAL / LPS inhibition activity (in words) (E. coli 0113 LPS): LAL inhibitory activity similar to intact rBPI23; concentration giving complete inhibition of the LPS-induced LAL reaction (E. coli 0113 LPS): 15 nM; cpm ^3H-Heparin bound [2]: 13,419 ± 309 cpm |
